Reference: patent US20200009262A1, “TARGETED CONSTRUCTS AND FORMULATIONS THEREOF” (TARVEDA THERAPEUTICS, INC., priority 2016, published 2020)
Where two headings read alike, the source gives them in different places.

Tests used:
Once/week MTD = settings: in vivo
[1] = system: SW48 xenograft model (human colorectal cancer); experiment: Efficacy study in SW48 xenograft model, tumor growth inhibition; format: in vivo; settings: irinotecan 50 mg/kg once/week for two weeks
Protocol: Efficacy of Compound 3 was tested in an SW48 xenograft model (human colorectal cancer). Efficacies of the other compounds in Table 2 were also tested. All conjugates were dosed twice/week for two weeks.

[2] = In vivo half-life / NCA pharmacokinetics of albumin binding conjugates in rat plasma; parameters: species or system rats; settings: for half-life: iv, 1 mg/kg
Protocol: Compound 3 and Compound 4 were administered to rats at 1 mg/kg via IV. […] Therefore, the concentration of Compound 3′ is measured after treating plasma samples at a low pH.

[3] = Blood pressure study, tail cuff, 10 minute intravenous infusion; format: in vivo, Sprague Dawley rats; settings: 400 nmol/kg infused over 10 minutes; significant drop = drop of at least 10%
Protocol: An external pumping device was used to deliver the target dose volume for each animal over a 10 minute dosing interval. Blood pressure was measured by tail cuff using the CODA Non-Invasive Blood Pressure system. Animals were placed in restrainers with the tail cuff on. The animals and the restrainers were then placed on a heating pad for approximately 5 minutes. Following the 5 minute heating pad acclimation an additional acclimation data collection took place prior to dose initiation for approximately 5 minutes. Blood pressure data began at dose initiation and was collected through at least 30 minutes postdose. […] Test articles were infused over 10 minutes. The start and stop times for the following processes were documented. The following parameters were collected: diastolic pressure, systolic pressure, mean blood pressure, heart rate, tail blood flow, and tail blood volume.

SW48 cells = experiment: IC50 in SW48 cells; format: cell-based, human
[4] = transthyretin, 55 KDa serum protein, background statement; cited from earlier work
[5] = Day 4, conjugates twice/week for two weeks (3, 4, 7, 8: 2.0 mg/kg; 5, 6: 0.025 mg/kg)
[6] = Day 8, conjugates twice/week for two weeks (3, 4, 7, 8: 2.0 mg/kg; 5, 6: 0.025 mg/kg)
[7] = Day 10, conjugates 2.0 mg/kg twice/week for two weeks
[8] = Day 14, conjugates 2.0 mg/kg twice/week for two weeks
[9] = Day 17, conjugates 2.0 mg/kg twice/week for two weeks
[10] = Day 21, conjugates 2.0 mg/kg twice/week for two weeks
[11] = in vivo, IV 1.0 mg/kg, plasma, measured as Compound 3′ after low pH treatment

With `COc1cc2cc(c1Cl)N(C)C(=O)C[C@H](OC(=O)[C@H](C)N(C)C(=O)CCSC1CC(=O)N(CCCNC(=O)CNC(=O)[C@H](CC(C)C)NC(=O)[C@H](Cc3ccccc3)NC(=O)CNC(=O)CCC(=O)NCCCC[C@H](NC(C)=O)C(=O)N3CCC[C@H]3CN[C@@H](CC(C)C)C(=O)N3CCC[C@H]3C(=O)N(C)[C@@H](CCCNC(=N)N)C(=O)N[C@H](C(=O)N[C@@H](CCCNC(=N)N)C(=O)N[C@@H](Cc3ccc(O)cc3)C(=O)O)C(C)(C)C)C1=O)[C@]1(C)O[C@H]1[C@H](C)[C@@H]1C[C@@](O)(NC(=O)O1)[C@H](OC)/C=C/C=C(\C)C2` (stereo partly drawn) [Compound 7] the MTD (Once/week MTD) was greater than 8 mg/kg, the TGI % [1, 5] was −11% and the TGI % [1, 6] was −22.6%. For the same molecule, the TGI % [1, 7] was −29.7%, the TGI % [1, 8] was −32% and the TGI % [1, 9] was −48.3%. For the same molecule, the TGI % [1, 10] was −52.8%.
For `COc1cc2cc(c1Cl)N(C)C(=O)C[C@H](OC(=O)[C@H](C)N(C)C(=O)CCSC1CC(=O)N(CCCNC(=O)CNC(=O)[C@H](CC(C)C)NC(=O)[C@H](Cc3ccccc3)NC(=O)CNC(=O)CCC(=O)NCCCC[C@H](NC(=O)c3ccc(/C(C)=N/NC(=O)CCCCCN4C(=O)C=CC4=O)cc3)C(=O)N3CCC[C@H]3C(=O)N(C)[C@@H](CCCNC(=N)N)C(=O)N[C@@H](CCCNC(=N)N)C(=O)N3CCC[C@H]3C(=O)N[C@@H](Cc3ccc(O)cc3)C(=O)N[C@H](C(=O)N[C@@H](CC(C)C)C(=O)O)C(C)(C)C)C1=O)[C@]1(C)O[C@H]1[C@H](C)[C@@H]1C[C@@](O)(NC(=O)O1)[C@H](OC)/C=C/C=C(\C)C2` (stereo partly drawn) [Compound 3], the MTD (Once/week MTD) was 4 to 8 mg/kg, the “rat plasma half-life relative to Compound 4 (does not bind albumin)” value ([2]; IV 1 mg/kg) was 80 fold and the AUC [2, 11] was 33.7 µM·h. It also gave an AUC(0-inf) [2, 11] of 39.3 µM·h, a Cmax [2, 11] of 4.69 µM and a clearance [2, 11] of 0.16 mL/min/kg. For the same molecule, the Vd ([2]; in vivo, IV 1.0 mg/kg, plasma, measured as Compound 3′ after low pH treatment, read-out: Vss) was 0.107 L/kg, the half-life ([2]; in vivo, IV 1.0 mg/kg, plasma, measured as Compound 3′ after low pH treatment of plasma samples, read-out: t½ (converted)) was 9.32 h and the half-life ([2]; in vivo, IV 1 mg/kg, read-out: rat plasma half-life (converted)) was 9.3 h. The “mean blood pressure change” value [3] was “no significant drop in mean blood pressure”.
With `COc1cc2cc(c1Cl)N(C)C(=O)C[C@H](OC(=O)[C@H](C)N(C)C(=O)CCSC1CC(=O)N(CCCNC(=O)CNC(=O)[C@H](CC(C)C)NC(=O)[C@H](Cc3ccccc3)NC(=O)CNC(=O)CCC(=O)NCCCC[C@H](NC(C)=O)C(=O)N3CCC[C@H]3C(=O)N(C)[C@@H](CCCNC(=N)N)C(=O)N[C@@H](CCCNC(=N)N)C(=O)N3CCC[C@H]3C(=O)N[C@@H](Cc3ccc(O)cc3)C(=O)N[C@H](C(=O)N[C@@H](CC(C)C)C(=O)O)C(C)(C)C)C1=O)[C@]1(C)O[C@H]1[C@H](C)[C@@H]1C[C@@](O)(NC(=O)O1)[C@H](OC)/C=C/C=C(\C)C2` (stereo partly drawn) [Compound 4] the MTD (Once/week MTD) was greater than 8 mg/kg, the “degradation in rat plasma compared with albumin bound Compound 3” value ([2]; IV 1 mg/kg, FIG. 3) was “degraded faster” and the IC50 (SW48 cells) was 3.7 nM. The “mean blood pressure change” value [3] was “significant drop in mean blood pressure”.
Molecule `COc1ccc(C2=CN3C(=O)c4cc(OC)c(OCCCOc5cc6c(cc5OC)C(=O)N5C=C(c7ccc(NC(=O)[C@H](C)NC(=O)[C@@H](NC(=O)CCCCCN8C(=O)CC(SCCC(=O)NCCCC[C@H](NC(C)=O)C(=O)N9CCC[C@H]9C(=O)N[C@@H](CC(C)C)C(=O)N9CCC[C@H]9C(=O)N(C)[C@@H](CCCNC(=N)N)C(=O)N[C@H](C(=O)N[C@@H](CCCNC(=N)N)C(=O)N[C@@H](Cc9ccc(O)cc9)C(=O)O)C(C)(C)C)C8=O)C(C)C)cc7)C[C@H]5C=N6)cc4N=C[C@@H]3C2)cc1` (stereo partly drawn) [Compound 6] has an MTD (Once/week MTD) of 0.05 mg/kg, a TGI % [1, 5] of 22.2% and a TGI % [1, 6] of 28.3%. For the same molecule, the IC50 (SW48 cells) was 4 nM.
`COc1ccc(C2=CN3C(=O)c4cc(OC)c(OCCCOc5cc6c(cc5OC)C(=O)N5C=C(c7ccc(NC(=O)[C@H](C)NC(=O)[C@@H](NC(=O)CCCCCN8C(=O)CC(SCCC(=O)NCCCC[C@H](NC(C)=O)C(=O)N9CCC[C@H]9C(=O)N(C)[C@@H](CCCNC(=N)N)C(=O)N[C@@H](CCCNC(=N)N)C(=O)N9CCC[C@H]9C(=O)N[C@@H](Cc9ccc(O)cc9)C(=O)N[C@H](C(=O)N[C@@H](CC(C)C)C(=O)O)C(C)(C)C)C8=O)C(C)C)cc7)C[C@H]5C=N6)cc4N=C[C@@H]3C2)cc1` (stereo partly drawn) [Compound 5] gave an MTD (Once/week MTD) of 0.05 mg/kg, a TGI % [1, 5] of 21.3% and a TGI % [1, 6] of 45.9%. The IC50 (SW48 cells) was 1.8 nM.
Molecule `CCc1c2c(nc3ccc(OC(=O)N4CCC(N5CCCCC5)CC4)cc13)-c1cc3c(c(=O)n1C2)COC(=O)[C@]3(O)CC` [Irinotecan, irinotecan, reference compound] has an MTD (Once/week MTD) of 50 mg/kg, a TGI % [1, 6] of 10% and a TGI % [1, 7] of 12.8%. For the same molecule, the TGI % [1, 8] was 33%, the TGI % [1, 9] was 34.9% and the TGI % [1, 10] was 33.9%.
For Transthyretin, the in vivo half-life [4] is listed as “around 48 h”.
